The values that follow come from BindingDB's records for doi:10.1016/s0960-894x(98)00290-x (3-Dimensional Pharmaceuticals, 1999).

Test [1] can be described thus: Compound was tested in vitro for its ability to inhibit serine protease chymotrypsin using suc-Ala-Ala-Pro-Phe-p-nitroanilide as substrate.
Test [2] is described as follows: Compound was tested in vitro for its ability to inhibit serine protease trypsin using benzoyl-Phe-Val-Arg-p-nitroanilide as substrate.

With `Cc1cc(OCCCNC(=N)N)cc(OS(=O)(=O)c2ccccc2Cl)c1` [2-Chloro-benzenesulfonic acid 3-(3-guanidino-propoxy)-5-methyl-phenyl ester], the Ki (commonly the equilibrium dissociation constant of an inhibitor or competing ligand from its target) in test [1] was > 200 µM; in test [2] it was 23 µM.
